PubChem BioAssay (NCI)
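Five compound concentrations were applied to cells in 96-well plates for 48 hours; endpoints were derived by simple linear interpolation of the resulting dose-response curve. At the TGI there is no net growth.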

Key:
Experiment in all cases: NCI-60 cell line screen, 48 h
[1] = system: 786-0 renal
[2] = system: A549 NSCLC
[3] = system: ACHN renal
[4] = system: CAKI-1 renal
[5] = system: CCRF-CEM leukemia
[6] = system: COLO 205 colon
[7] = system: DU-145 prostate
[8] = system: EKVX NSCLC
[9] = system: HCC-2998 colon
[10] = system: HCT-116 colon
[11] = system: HCT-15 colon
[12] = system: HOP-62 NSCLC
[13] = system: HOP-92 NSCLC
[14] = system: HS 578T breast
[15] = system: HT29 colon
[16] = system: IGROV1 ovarian
[17] = system: K-562 leukemia
[18] = system: KM12 colon
[19] = system: LOX IMVI melanoma
[20] = system: MCF7 breast
[21] = system: MDA-MB-231 breast
[22] = system: MDA-MB-435
[23] = system: MDA-N
[24] = system: MOLT-4 leukemia
[25] = system: NCI-H226 lung
[26] = system: NCI-H23 lung
[27] = system: NCI-H460 lung
[28] = system: NCI-H522 lung
[29] = system: NCI/ADR-RES ovarian
[30] = system: OVCAR-3 ovarian
[31] = system: OVCAR-4 ovarian
[32] = system: OVCAR-5 ovarian
[33] = system: OVCAR-8 ovarian
[34] = system: PC-3 prostate
[35] = system: RPMI-8226 leukemia
[36] = system: RXF 393 renal
[37] = system: SF-268 CNS
[38] = system: SF-295 CNS
[39] = system: SF-539 CNS
[40] = system: SK-MEL-2 melanoma
[41] = system: SK-MEL-28 melanoma
[42] = system: SK-MEL-5 melanoma
[43] = system: SK-OV-3 ovarian
[44] = system: SN12C renal
[45] = system: SNB-19 CNS
[46] = system: SNB-75 CNS
[47] = system: SW-620 colon
[48] = system: T-47D breast
[49] = system: TK-10 renal
[50] = system: U251 CNS
[51] = system: UACC-257 melanoma
[52] = system: UACC-62 melanoma
[53] = system: UO-31 renal
[54] = system: A498 renal
[55] = system: BT-549 breast
[56] = system: HL-60(TB) leukemia
[57] = system: M14 melanoma
[58] = system: SR leukemia
[59] = system: MALME-3M melanoma

Measured: TGI

COC(=O)C1Cc2c([nH]c3ccccc23)-c2[nH]c3ccccc3c2CC(NC(C)=O)C(=O)NCC(=O)N1 (centres undefined)
not listed: [54] | [55] | [56] | [57] | [58] | [59]
> 100 µM: all other assays above

CC1(C(O)c2ccccc2)CN(C(C)(C)C)C(=O)/C1=C\Sc1ccccc1 (centres undefined)
43.5 µM: [37]
21.7 µM: [13]
79.8 µM: [15]
95.2 µM: [51]
32.1 µM: [19]
50.7 µM: [6]
22.9 µM: [28]
not listed: [14] | [25] | [27] | [36] | [46] | [59]
> 100 µM: all other assays above

Cc1ccc(S(=O)/C=C(\NC(=O)OCc2ccccc2)C(F)(F)F)cc1 (centres undefined)
73.4 µM: [53]
42 µM: [56]
92.9 µM: [39]
55.2 µM: [50]
91.4 µM: [46]
71 µM: [3]
72.4 µM: [5]
72 µM: [41]
not listed: [12] | [14] | [35] | [37] | [54]
> 100 µM: all other assays above

CCOC(=O)c1c(NC(=S)NCc2ccccc2)sc2c1CCN(C)C2
40.3 µM: [5]
46.1 µM: [17]
36.2 µM: [56]
51 µM: [24]
not listed: [1] | [9] | [13] | [19] | [22] | [28] | [31] | [36] | [41] | [43] | [46] | [47] | [50] | [58] | [59]
> 100 µM: all other assays above

CC(=O)c1ccc2c(c1)CC1(C2)Cc2cc3c(cc2C1)C(=O)CC3 (centres undefined)
25.8 µM: [7]
34 µM: [50]
26.4 µM: [20]
13 µM: [38]
5.75 µM: [40]
39.2 µM: [16]
14.2 µM: [28]
35.2 µM: [3]
5.96 µM: [30]
25.7 µM: [59]
19.5 µM: [33]
17.6 µM: [57]
2.33 µM: [25]
29.2 µM: [2]
11.9 µM: [42]
13.2 µM: [11]
14.7 µM: [26]
0.492 µM: [23]
2.32 µM: [17]
32.8 µM: [13]
> 66.1 µM: [43]
69.3 µM: [48]
66.9 µM: [53]
28.7 µM: [52]
0.963 µM: [58]
29.1 µM: [51]
7.48 µM: [9]
4.22 µM: [54]
11.2 µM: [21]
3.39 µM: [39]
> 83 µM: [49]
17.8 µM: [34]
16.1 µM: [12]
17.2 µM: [29]
> 69.2 µM: [14]
33.5 µM: [4]
17.7 µM: [36]
2.1 µM: [56]
0.636 µM: [22]
28.8 µM: [19]
3.87 µM: [5]
> 73.6 µM: [31]
> 89.6 µM: [8]
30.4 µM: [41]
20.9 µM: [1]
12.2 µM: [27]
8.8 µM: [10]
3.61 µM: [35]
7.83 µM: [18]
1.66 µM: [6]
6.32 µM: [15]
not listed: [24] | [55]
> 100 µM: all other assays above

CCCCCCc1cc(C=O)sc1-c1ccc(-c2sc(-c3ccc(-c4ccc(-c5cc(CCCCCC)c(-c6ccc(-c7sc(C=O)cc7CCCCCC)s6)s5)s4)s3)cc2CCCCCC)s1
not listed: [14] | [46]
> 100 µM: all other assays above

NS(=O)(=O)c1ccc(CNC(=S)NC(=O)Nc2ccc(Cl)c(Cl)c2)cc1
61.1 µM: [15]
52.9 µM: [13]
32.5 µM: [53]
69.8 µM: [41]
43.1 µM: [18]
39.5 µM: [17]
35.8 µM: [57]
26.7 µM: [50]
25.2 µM: [34]
38.1 µM: [14]
> 100 µM: [7] | [31] | [32] | [49] | [51]
33.3 µM: [44]
40.2 µM: [24]
46 µM: [3]
25.5 µM: [21]
33 µM: [42]
32.6 µM: [10]
50.5 µM: [16]
33.2 µM: [38]
52.8 µM: [37] | [43]
60.2 µM: [46] | [48]
31.4 µM: [40]
34.7 µM: [55]
46.4 µM: [23]
41.1 µM: [29]
84.7 µM: [36]
33.5 µM: [54]
41.6 µM: [35]
31.8 µM: [11]
27.9 µM: [19]
29.3 µM: [52]
44.3 µM: [45]
43.4 µM: [5]
34.2 µM: [28]
39 µM: [20]
94 µM: [27]
41.5 µM: [39]
34.3 µM: [1]
77.4 µM: [6]
65.5 µM: [2]
57.1 µM: [59]
30.2 µM: [26]
53.4 µM: [33]
38.3 µM: [12]
44.7 µM: [47]
